What was measured:
[1] = Color formation on silica gel (TLC) and light resistance of the formed color; conditions: for light resistance: color formed on silica gel TLC
Method: The color in the Table is the color formed on silica gel.
To a dilute hydrochloric acid aqueous solution prepared by diluting 25 parts of 35% hydrochloric acid with 130 parts of water, 30 parts of 4,4'-bisdimethylaminobenzhydrol and 22 parts of methyl 3-dimethylaminobenzoate were dissolved and reacted at a temperature of from 50 to 60°C for 5 hours. Then, 10 parts of active carbon was added thereto, and the mixture was thoroughly mixed. After removing active carbon by filtration, 150 parts of 10% sodium hydroxide and 100 parts of toluene were added to the filtrate and thoroughly mixed. The toluene layer was separated, then washed with 100 parts of water and separated. Then, this toluene layer was thoroughly dried over anhydrous sodium salfate. Then, this toluene layer was concentrated, and 100 parts of methanol was added to the residue thereby obtained. Precipitated crystals were collected by filtration and recrystallized from a solvent mixture comprising 50 parts of methanol and 50 parts of acetone to obtain 35 parts of bis((4-dimethylamino)phenyl)-(2-methoxycarbonyl-4-dimethylaminophenyl)methane.

[2] = Solubility of the color former in oil (KMC-113); assay type: physicochemical; conditions: in KMC-113 at 50°C
From the text: To examine the solubility of a color former in oil, the solubility of benzoylleucomethylene blue in KMC-113 (product of Kureha Chemical Industries Co., Ltd.) as a typical solvent commonly employed, was investigated.
To examine the solubility in oil of the triarylmethane compounds of the present invention, the solubility in KMC-113 (product of Kureha Chemical Industries Co., Ltd.) as a typical solvent was examined.

COC(=O)c1cc(N(C)C)ccc1C(c1ccc(N(C)C)cc1)c1ccc(N(C)C)cc1 [Preparation Example 1, bis((4-dimethylamino)phenyl)-(2-methoxycarbonyl-4-dimethylaminophenyl)methane]
light resistance [1]: excellent | color formed on silica gel TLC [1]: gradually formed a clear blue color | solubility [2]: at least 10%

CC(C)OC(=O)c1cc(N(C)C)ccc1C(c1ccc(N(C)C)cc1)c1ccc(N(C)C)cc1 [Preparation Example 2, bis((4-dimethylamino)phenyl)-(2-isopropoxycarbonyl-4-dimethylaminophenyl)methane]
light resistance [1]: excellent | color formed on silica gel TLC [1]: gradually formed a clear blue color | solubility [2]: at least 10%

CCOC(=O)c1cc(N(C)C)ccc1C(c1ccc(N(C)C)cc1C)c1ccc(N(C)C)cc1C [Preparation Example 5, bis((2-methyl-4-dimethylamino)phenyl)-(2-ethoxycarbonyl-4-dimethylaminophenyl)methane]
light resistance [1]: excellent | color formed on silica gel TLC [1]: gradually formed a clear blue color

COC(=O)c1cc(N(C)C)ccc1C(c1ccc(N(C)C)cc1C)c1ccc(N(C)C)cc1C [Preparation Example 4, bis((2-methyl-4-dimethylamino)phenyl)-(2-methoxycarbonyl-4-dimethylaminophenyl)methane]
light resistance [1]: excellent | color formed on silica gel TLC [1]: gradually formed a clear blue color

CN(C)c1ccc2c(c1)Sc1cc(N(C)C)ccc1N2C(=O)c1ccccc1 [benzoylleucomethylene blue, reference compound]
solubility [2]: 2.5%

CCCCOC(=O)c1cc(N(C)C)ccc1C(c1ccc(N(C)C)cc1)c1ccc(N(C)C)cc1 [Preparation Example 3, bis((4-dimethylamino)phenyl)-(2-n-butoxycarbonyl-4-dimethylaminophenyl)methane]
light resistance [1]: excellent | color formed on silica gel TLC [1]: gradually formed a clear blue color | solubility [2]: at least 10%
